Measurements from US11352330B2, “Phenoxymethyl derivatives” (Hoffmann-La Roche Inc., priority 2015, dated 2022).

Target: human ATX (Homo sapiens (Human), UniProt Q13822)
Assay: Human ATX enzyme inhibition assay (fluorescence quenching, MR121 substrate)
Type: biochemical
Settings: human His-tagged ATX 30 nM, MR121 substrate 1 μM, 30° C.
Method: Human ATX Enzyme Inhibition Assay
ATX inhibition was measured by a fluorescence quenching assay using a specifically labeled substrate analogue (MR121 substrate). To obtain this MR121 substrate, BOC and TBS protected 6-amino-hexanoic acid (R)-3-({2-[3-(2-{2-[2-(2-amino-ethoxy)-ethoxy]-ethoxy}-ethoxy)-propionylamino]-ethoxy}-hydroxy-phosphoryloxy)-2-hydroxy-propyl ester (Ferguson et al., Org Lett 2006, 8 (10), 2023) was labeled with MR121 fluorophore (CAS 185308-24-1, 1-(3-carboxypropyl)-11-ethyl-1,2,3,4,8,9,10,11-octahydro-dipyrido[3,2-b:2′,3′-i]phenoxazin-13-ium) on the free amine of the ethanolamine side and then, after deprotection, subsequently with tryptophan on the side of the aminohexanoic acid.
Assay working solutions were made as follows:
Assay buffer (50 mM Tris-HCl, 140 mM NaCl, 5 mM KCl, 1 mM CaCl2, 1 mM MgCl2, 0.01% Triton-X-100, pH 8.0;
ATX solution: ATX (human His-tagged) stock solution (1.08 mg/mL in 20 mM bicine, pH 8.5, 0.15 M NaCl, 10% glycerol, 0.3% CHAPS, 0.02% NaN3), diluted to 1.4-2.5× final concentration in assay buffer;
MR121 substrate solution: MR121 substrate stock solution (800 μM MR121 substrate in DMSO), diluted to 2-5× final concentration in assay buffer.
Test compounds (10 mM stock in DMSO, 8 μL) were obtained in 384 well sample plates (Corning Costar #3655) and diluted with 8 μL DMSO. Row-wise serial dilutions were made by transferring 8 μL cpd solution to the next row up to row O. The compound and control solutions were mixed five times and 2 μL were transferred to 384 well assay plates (Corning Costar #3702). Then, 15 μL of 41.7 nM ATX solution was added (30 nM final concentration), mixed five times and then incubated for 15 minutes at 30° C. 10 μL of MR121 substrate solution was added (1 μM final concentration), mixed 30 times and then incubated for 15 minutes at 30° C.

Row | IC50 [nM] | Structure (SMILES)
1 | 10 | COC(=O)c1cc(COc2cc(C)c(Cl)cc2C(C)(C)C)n[nH]1 [Example F3, Methyl 3-((2-(tert-butyl)-4-chloro-5-methylphenoxy)methyl)-1H-pyrazole-5-carboxylate]
2 | 746 | Cc1cc(OCc2n[nH]c3c2CN(C(=O)OC(C)(C)C)CC3)c(C(C)(C)C)cc1Cl [Example E1, tert-Butyl 3-((2-tert-butyl-4-chloro-5-methylphenoxy)methyl)-6,7-dihydro-1H-pyrazolo[4,3-c]pyridine-5(4H)-carboxylate]
3 | 9 | Cc1cc(OCc2n[nH]c3ncccc23)c(C(C)(C)C)cc1C#N [Example D4]
4 | 46 | Cc1cc(OCc2ccc(=O)[nH]n2)c(C(C)(C)C#N)cc1Cl [Example C9, 2-[5-chloro-4-methyl-2-[(6-oxo-1H-pyridazin-3-yl)methoxy]phenyl]-2-methylpropanenitrile]
5 | 8 | Cc1cc(OCc2cc(C(=O)N3CCCC3)[nH]n2)c(C(C)(C)C)cc1Cl [Example F4, (3-((2-(tert-Butyl)-4-chloro-5-methylphenoxy)methyl)-1H-pyrazol-5-yl)(pyrrolidin-1-yl)methanone]
6 | 9 | Cc1cc(OCc2n[nH]c3ncccc23)c(-c2cc(C(=O)N(C)C)ccc2F)cc1Cl [Example D21]
7 | 6 | Cc1cc(OCc2n[nH]c3nc(OCC(O)CO)ncc23)c(C(C)(C)C)cc1C#N (stereo not shown) [Example D37, 5-tert-Butyl-4-[[6-(2,3-dihydroxypropoxy)-1H-pyrazolo[3,4-d]pyrimidin-3-yl]methoxy]-2-methylbenzonitrile]
8 | 7 | Cc1cc(OCc2n[nH]c3nc(OCCO)ncc23)c(C(C)(C)C)cc1Cl [Example D31, 2-[[3-[(2-tert-Butyl-4-chloro-&-methylphenoxy)methyl]-1H-pyrazolo[3,4-d]pyrimidin-6-yl]oxy]ethanol]
9 | 11 | COc1ncccc1-c1cc(Cl)c(C)cc1OCc1n[nH]c2cnccc12 [Example D47]
10 | 4 | CC(C)c1cc(Cl)c(F)cc1OCc1ccc(=O)[nH]n1 [Example C3, 3-[(4-chloro-5-fluoro-2-propan-2-ylphenoxy)methyl]-1H-pyridazin-6-one]
11 | 19 | Cc1cc(OCc2ccc(=O)[nH]n2)c(C(C)C)cc1Cl [Example C1, 3-[(4-Chloro-5-methyl-2-propan-2-ylphenoxy)methyl]-1H-pyridazin-6-one]
12 | 98 | Cc1cc(OCc2n[nH]c3cccnc23)c(-c2cc(C(=O)N(C)C)ccc2F)cc1Cl [Example D28]
13 | 5 | N#Cc1cc(-c2cc(OC3CC3)ccc2F)c(OCc2ccc(=O)[nH]n2)cc1Cl [Example C14]
14 | 32 | Cc1cc(C(C)(C)C)c(OCc2n[nH]c3ncccc23)cc1C#N [Example D48]
15 | 8 | Cc1cc(OCc2n[nH]c3ncccc23)c(-c2cc(C(=O)N3CCN(C)C(=O)C3)ccc2F)cc1Cl [Example D39]
16 | 21 | Cc1cc(OCc2n[nH]c3cccnc23)c(C(C)(C)C)cc1Cl [Example D23]
17 | 8 | Cc1cc(OCc2n[nH]c3nc(N4CC(O)C4)ncc23)c(C(C)(C)C)cc1C#N [Example D32, 5-tert-Butyl-4-[[6-(3-hydroxyazetidin-1-yl)-1H-pyrazolo[3,4-d]pyrimidin-3-yl]methoxy]-2-methylbenzonitrile]
18 | 99 | Cc1cc(OCc2n[nH]c3cccnc23)c(-c2cccc(C(=O)N(C)C)c2)cc1Cl [Example D24]
19 | 23 | CC(C)(C)c1cc(S(C)(=O)=O)ccc1OCc1n[nH]c2ncccc12 [Example D45]
20 | 5 | Cc1cc(OCc2ccc(=O)[nH]n2)c(C(C)(C)C)cc1Cl [Example C8, 3-[(2-tert-butyl-4-chloro-5-methylphenoxy)methyl]-1H-pyridazin-6-one]
21 | 35 | Cc1cc(OCc2n[nH]c3ncccc23)c(-c2cccc(C(=O)NCCO)c2)cc1Cl [Example D19]
22 | 19 | Cc1cc(OCc2n[nH]c3nc(F)ccc23)c(C(C)(C)C)cc1Cl [Example D6, 3-[(2-tert-Butyl-4-chloro-5-methylphenoxy)methyl]-6-fluoro-1H-pyrazolo[3,4-b]pyridine]
23 | 15 | Cc1cc(OCc2cc(C(=O)N(C)C)[nH]n2)c(C(C)(C)C)cc1Cl [Example F5, 3-((2-(tert-Butyl)-4-chloro-5-methylphenoxy)methyl)-N,N-dimethyl-1H-pyrazole-5-carboxamide]
24 | 3 | N#Cc1cc(-c2cc(OC(F)(F)F)ccc2F)c(OCc2n[nH]c3ncccc23)cc1Cl [Example D55]
25 | 9 | Cc1cc(OCc2n[nH]c3nc(NCCO)ncc23)c(C(C)(C)C)cc1C#N [Example D35]
26 | 1 | Cc1cc(OCc2ccc(=O)[nH]n2)c(C2CCC2)cc1Cl [Example C5, 3-[(4-chloro-2-cyclobutyl-5-methylphenoxy)methyl]-1H-pyridazin-6-one]

Second part, the molecule before the results:

Row | Structure (SMILES) | IC50 [nM]
27 | Cn1c(COc2cc(Cl)c(C#N)cc2-c2ccccc2F)n[nH]c1=O [Example B84] | 19
28 | Cn1c(COc2ccc(-c3ncco3)cc2C(C)(C)C)n[nH]c1=O [Example A7] | 13
29 | Cn1ccnc1-c1ccc(OCc2n[nH]c(=O)n2C)c(C(C)(C)C)c1 [Example A6] | 523
30 | Cc1cc(OCc2n[nH]c(=O)n2C)c(-c2cc(C(N)=O)ccc2OC(F)(F)F)cc1Cl [Example B52] | 12
31 | COc1ncccc1-c1cc(Cl)c(C)cc1OCc1n[nH]c(=O)n1C [Example B53] | 42
32 | Cc1cc(OCc2n[nH]c(=O)n2C)c(-c2cc(C(=O)N(C)Cc3ccccn3)ccc2F)cc1Cl [Example B71] | 9
33 | Cc1cc(OCc2n[nH]c(=O)n2C)c(C(C)(C)C)cc1Cl [Example A1, 3-[(2-tert-Butyl-4-chloro-5-methylphenoxy)methyl]-4-methyl-1H-1,2,4-triazol-5-one] | 2
34 | Cc1cc(OCc2n[nH]c(=O)n2C)c(-c2cnccn2)cc1Cl [Example B22, 3-[(4-Chloro-5-methyl-2-pyrazin-2-ylphenoxy)methyl]-4-methyl-1H-1,2,4-triazol-5-one] | 227
35 | Cc1cc(OCc2n[nH]c(=O)n2C)c(-c2cc(C#N)ccc2OC(F)(F)F)cc1Cl [Example B86] | 49
36 | COc1ccc(C(C)C)cc1-c1cc(Cl)c(C)cc1OCc1n[nH]c(=O)n1C [Example B60] | 11
37 | Cc1cc(OCc2n[nH]c(=O)n2C)c(-c2cccnc2Cl)cc1Cl [Example B18] | 52
38 | Cc1cc(OCc2n[nH]c(=O)n2C)c(C(C)(C)C)cc1C#N [Example A16] | 5
39 | Cn1c(COc2ccc(S(C)(=O)=O)cc2C(C)(C)C)n[nH]c1=O [Example A15] | 230
40 | Cn1c(COc2cc(Cl)c(C#N)cc2-c2cc(OCC(F)(F)F)ccc2F)n[nH]c1=O [Example B98, 2-chloro-5-[2-fluoro-5-(2,2,2-trifluoroethoxy)phenyl]-4-[(4-methyl-5-oxo-1H-1,2,4-triazol-3-yl)methoxy]benzonitrile] | 9
41 | Cc1cc(C(C)(C)C)c(OCc2n[nH]c(=O)n2C)cc1C#N [Example A17] | 35
42 | Cc1cc(OCc2n[nH]c(=O)n2C)c(-c2cc(OCC3CCOC3)ccc2F)cc1Cl (stereo not shown) [Example B67] | 6
43 | COc1cccc(-c2cc(Cl)c(C)cc2OCc2n[nH]c(=O)n2C)n1 [Example B21] | 104
44 | Cn1c(COc2cc(S(C)(=O)=O)c(Cl)cc2C2CC2)n[nH]c1=O [Example A14] | 1890
45 | Cc1cc(OCc2n[nH]c(=O)n2C)c(-c2cc(Cl)cc(C(N)=O)c2)cc1Cl [Example B14] | 79
46 | Cc1cc(OCc2n[nH]c(=O)n2C)c(-c2cccc(Cl)n2)cc1Cl [Example B19] | 65
47 | Cc1cc(OCc2n[nH]c(=O)n2C)c(-c2cc(OCC(=O)N(C)C)ccc2F)cc1Cl [Example B75] | 10
48 | Cc1cc(OCc2n[nH]c(=O)n2C)c(-c2cc(C(=O)N3CCN(C)C(=O)C3)ccc2F)cc1Cl [Example B65] | 13
49 | Cn1c(COc2ccc(C#N)cc2-c2ccccc2)n[nH]c1=O [Example B16] | 25
50 | Cc1cc(OCc2n[nH]c(=O)n2C)c(C(C)C)cc1C#N [Example A12] | 1
51 | COc1ncccc1-c1cc(C#N)c(Cl)cc1OCc1n[nH]c(=O)n1C [Example B54] | 29
52 | Cc1cc(OCc2n[nH]c(=O)n2C)c(-c2cc(C(=O)N(C)Cc3cccs3)ccc2F)cc1Cl [Example B68] | 7
53 | COc1cccc(-c2cc(Cl)c(C)cc2OCc2n[nH]c(=O)n2C)c1F [Example B90] | 7
54 | Cc1cc(OCc2n[nH]c(=O)n2C)c(-c2cc(CN(C)C(=O)C3CC3)ccc2F)cc1Cl [Example B80] | 5
55 | Cc1cc(OCc2n[nH]c(=O)n2C)c(-c2cc(C(F)(F)F)nn2C)cc1Cl [Example B24, 3-[[4-Chloro-5-methyl-2-[2-methyl-5-(trifluoromethyl)pyrazol-3-yl]phenoxy]methyl]4-methyl-1H-1,2,4-triazol-5-one] | 126
